Three substances from US9023821B2, “Use of MicroRNA for treating diseases associated with a dysfunction of the cilia in multiciliated epithelial cells” (Centre National de la Recherche Scientifique, priority 2009, dated 2015) can be followed below.

For series [1], the system named is basal cells and pyramidal cells of the airway epithelium. Briefly: miRNA expression in sorted basal cells versus pyramidal cells (ciliated + secretory), HTS and Agilent chips. On the set-up: species or system human. Here is the method: After dissociation of the stroma of nasal polyps, the epithelial cells (about 20.10^6) are incubated in PBS-BSA-EDTA for 30 min and then incubated with labeled antibody CD151-PE and anti-TF (tissue factor)-FITC for 20 min, 4° C. (see Hajj, R. et al., Stem Cells 25, 139-148 (2007)). After washing twice, the cells are taken up in PBS-EDTA and incubated with DAPI for labeling the cells whose integrity has been altered.
Cell sorting was carried out on the FACSAria sorter (BD Biosciences) equipped with 3 lasers, blue, red and violet. Dead cells, aggregates and double cells were excluded. The doubly positive population of basal cells (CD151+/FT+) and the negative population of cylindrical cells (containing ciliated cells and mucus-secreting cells) (CD151−/FT−) were selected and sorted at a rate of 5000 events/s ([…]). The purity and identity of the sorted cells were then verified by cytometry and immunocytochemistry.
Like the native airway epithelium, the model of differentiation in vitro used in these tests consists of basal cells, ciliated cells and mucus-secreting cells. In order to identify the repertoires of the miRNAs specific to each of the cellular types, the inventors used cell sorting by flow cytometry by means of specific markers (Hajj, R. et al. 2007). Using this technique, adult airway progenitor cells (corresponding a priori to basal cells) were isolated, selected and sorted (such cells appear doubly positive for tetraspanin CD151 and for the tissue factor) from the pyramidal cells (i.e. ciliated cells and mucus-secreting cells) which appear negative for these same markers. These were purified from polyps or from nasal conchae obtained from 3 separate donors.
After extracting the total RNAs, the expression profiles of the miRNAs were established by means of Agilent® commercial chips or by high-throughput sequencing (HTS). […] For the first time, the inventors thus attribute a repertoire of expression of the miRNAs specifically to separate cellular types of the airway epithelium during differentiation.

Series [2] deals with human airway epithelial cells (HAECs). Briefly: Agilent miRNA chips, miRNA expression at four stages of differentiation of HAECs. From the text: In parallel with the high-throughput sequencing of the microRNAs, the repertoire of expression of the microRNAs (microRNAome) is investigated using the technology of Agilent® microRNA chips. For this, RNA samples from the same patients as before were used, labeled and hybridized on Agilent® miRNA chips (Human miRNA Microarray v2, containing 866 human miRNAs and 89 human viral miRNAs, i.e. all the human miRNAs contained and referenced in Sanger miRBase v.12.0, Agilent Technologies, France) using the “miRNA labeling and hybridization” kit, following the supplier's instructions (Agilent Technologies).
The inventors then used the Agilent miRNA chips to investigate the repertoire of expression of the miRNAs of the human airway epithelium and compare the results obtained in high-throughput sequencing with those obtained with Agilent® commercial miRNA chips.

Series [3] has the same test system. Briefly: High-throughput sequencing (HTS) of miRNAs at four stages of differentiation of HAECs. The conditions noted are these: for Level of intensity of expression in log2 At the differentiated stage (WD) measured in HTS: healthy human airway epithelial tissue; for Modulation (ratio of the level of intensity of expression in log2 in two stages of differentiation), D7 − D0 / Modulation (ratio of the level of intensity of expression in log2 in two stages of differentiation), FC − D7 / Modulation (ratio of the level of intensity of expression in log2 in two stages of differentiation), WD − D0 / Modulation (ratio of the level of intensity of expression in log2 in two stages of differentiation), WD − FC / Abundance (%), D0 / Level of intensity of expression in log2, D0 / Abundance (%), D7 / Level of intensity of expression in log2, D7 / Abundance (%), FC / Level of intensity of expression in log2, FC / Abundance (%), WD / Level of intensity of expression in log2, WD: HTS; for Abundance (%), D0: ALI-D0; for Level of intensity of expression in log2, D0: ALI-D0 (proliferation); for Abundance (%), D7: ALI-D7; for Level of intensity of expression in log2, D7: ALI-D7 (proliferation and polarization); for Abundance (%), FC: ALI-FC; for Level of intensity of expression in log2, FC: ALI-FC (start of ciliogenesis); for Abundance (%), WD: ALI-WD; for Level of intensity of expression in log2, WD: ALI-WD (wholly differentiated epithelium). The text has this:
The total RNAs were extracted from HAECs cultivated at the air-liquid interface at four stages of differentiation: ALI-D0 (0 day), ALI-D7 (7 days), ALI-FC (during appearance of the first cilia at about 14 days) and ALI-WD (wholly differentiated at about 21 days). The cells are lysed in reagent with Trizol® (Invitrogen). The total RNAs containing small RNAs and microRNAs are purified on Qiagen RNEasy columns (Qiagen) according to the supplier's instructions.
The total RNAs containing small RNAs and microRNAs are isolated as before. The procedure is based on the Applied Biosystems Ligase-Enhanced Genome Detection technology (LEGenD™); the SOLiD™ Small RNA Expression kit (Applied Biosystems, France) was used. With this method it is possible to convert the small RNAs of a sample into a library of double-stranded DNA; it was developed by Applied Biosystems SOLiD™ System for a new generation of high-throughput sequencing.
The high-throughput sequencing of the microRNAs was carried out according to the supplier's recommendations. Briefly, the total RNAs containing the small RNAs are hybridized (65° C., 10 min, then at 16° C., 5 min) and ligated (16° C., 2-16 h in a thermocycler) with the Adaptor Mix A for producing a matrix for sequencing the 5′ end of the small RNAs, or with the Adaptor Mix B for sequencing the 3′ end. The samples are then reverse-transcribed (42° C., 30 min) to synthesize the complementary DNA (cDNA). The library of small RNAs is amplified by PCR and after migration on polyacrylamide gel the amplified small RNAs are cut out and extracted from the gel according to their size (length of about 105-150 bases, according to the supplier's instructions), eluted and resuspended in nuclease-free water. The concentration of nucleic acids is then measured and normalized before proceeding with preparation of the samples for sequencing.
For each microRNA sequenced, the number of sequences of the 5p strand and of the 3p strand of the microRNA was normalized to 10^6 sequences and converted to percentage abundance of expression for each of the microRNAs. The data were then normalized according to a linear model and an empirical Bayesian method using software R. For subsequent analyses, only the microRNAs were retained for which the percentage expression (or abundance) is greater than 1% of the total of the microRNAs in at least one culture condition, with a |Log2 Ratio| below 0.5 and an adjusted P-value below 0.05.

On to “hsa-miR-30e: human miRNA, SEQ ID No. 36 (UGUAAACAUCCUUGACUGGAAG; expressed or natural sequence; listed as Homo sapiens)”, for which the “Modulation of expression of the miRNAs in pyramidal cells (323(−)) relative to basal cells 323(+)” value in series [1] (HTS and Agilent chips) is −1.60. Further, in series [1] (basal cells), the “Intensity of the level of expression in log2 in basal cells (323(+))” value stood at 6.94 log2. Also, the “Intensity of the level of expression in log2 in pyramidal cells (323(−))” value in series [1] (pyramidal cells (ciliated + secretory)) is 5.34 log2. For the same substance, in series [2] (D7 − D0, Table VI), the “Modulation (ratio of the level of intensity of expression in log2 in two stages of differentiation) measured with the Agilent chips, D7 − D0” value was 2.76 log2. In addition, the “Modulation (ratio of the level of intensity of expression in log2 at two stages of differentiation), FC − D7” value in series [2] (FC − D7, Agilent miRNA chips, Table V) is listed as −0.25 log2. The “Modulation (ratio of the level of intensity of expression in log2 in two stages of differentiation) measured with the Agilent chips, FC − D7” value in series [2] (FC − D7, Table VI) is −0.25 log2. Further, the “Modulation (ratio of the level of intensity of expression in log2 in two stages of differentiation) measured with the Agilent chips, WD − D0” value in series [2] (WD − D0, Table VI) amounted to 2.38 log2. Moreover, the “Modulation (ratio of the level of intensity of expression in log2 at two stages of differentiation), WD − FC” value in series [2] (WD − FC, Agilent miRNA chips, Table V) was −0.13 log2. Besides, in series [2] (WD − FC, Table VI), the “Modulation (ratio of the level of intensity of expression in log2 in two stages of differentiation) measured with the Agilent chips, WD − FC” value is recorded as −0.13 log2. Also, the “Level of intensity of expression in log2 measured with the Agilent chips, D0” value in series [2] (stage D0, Table VI) was found to be 6.73 log2. The “Level of intensity of expression in log2 measured with the Agilent chips, D7” value in series [2] (stage D7, Table VI) turned out to be 9.50 log2. Also, the “Level of intensity of expression in log2 measured with the Agilent chips, FC” value in series [2] (stage FC, Table VI) is on record as 9.25 log2. Moreover, in series [2] (stage WD, Table VI), the “Level of intensity of expression in log2 measured with the Agilent chips, WD” value came to 9.12 log2. In addition, the “Modulation (ratio of the level of intensity of expression in log2 in two stages of differentiation) measured by high-throughput sequencing, D7 − D0” value in series [3] (D7 − D0, Table VI) is 1.27 log2. Also, the “Modulation (ratio of the level of intensity of expression in log2 in two stages of differentiation) measured by high-throughput sequencing, FC − D7” value in series [3] (FC − D7, Table VI) was −0.02 log2. Also, the “Modulation (ratio of the level of intensity of expression in log2 in two stages of differentiation) measured by high-throughput sequencing, WD − D0” value in series [3] (WD − D0, Table VI) was found to be 1.71 log2. The “Modulation (ratio of the level of intensity of expression in log2 in two stages of differentiation) measured by high-throughput sequencing, WD − FC” value in series [3] (WD − FC, Table VI) came to 0.46 log2. The “Level of intensity of expression in log2 At the differentiated stage (WD) measured in HTS” value in series [3] (stage WD) turned out to be 12.74 log2. In series [3] (stage D0, Table VI), the “Level of intensity of expression in log2 measured by high-throughput sequencing, D0” value came out at 7.04 log2. In addition, the “Level of intensity of expression in log2 measured by high-throughput sequencing, D7” value in series [3] (stage D7, Table VI) came out at 8.31 log2. The “Level of intensity of expression in log2 measured by high-throughput sequencing, FC” value in series [3] (stage FC, Table VI) is listed as 8.30 log2. Also, the “Level of intensity of expression in log2 measured by high-throughput sequencing, WD” value in series [3] (stage WD, Table VI) worked out at 8.76 log2.
Take “hsa-miR-449c: human miRNA, SEQ ID No. 201 (UAGGCAGUGUAUUGCUAGCGGCUGU; expressed or natural sequence; listed as Homo sapiens)”: in series [3], the “Modulation (ratio of the level of intensity of expression in log2 in two stages of differentiation), D7 − D0” value is given as 2.59 log2; the “Modulation (ratio of the level of intensity of expression in log2 in two stages of differentiation), FC − D7” value turned out to be 7.44 log2; the “Modulation (ratio of the level of intensity of expression in log2 in two stages of differentiation), WD − D0” value was found to be 9.44 log2; the “Modulation (ratio of the level of intensity of expression in log2 in two stages of differentiation), WD − FC” value was −0.59 log2. In series [3], the “Abundance (%), D0” value came out at 0.00%; the “Level of intensity of expression in log2, D0” value is recorded as 1.54 log2; the “Abundance (%), D7” value is 0.00%; the “Level of intensity of expression in log2, D7” value is recorded as 4.13 log2. Besides, in series [3], the “Abundance (%), FC” value was 0.32%; the “Level of intensity of expression in log2, FC” value is on record as 11.57 log2; the “Abundance (%), WD” value is 0.20%; the “Level of intensity of expression in log2, WD” value was 10.98 log2. Further, the “Level of intensity of expression in log2 At the differentiated stage (WD) measured in HTS” value in series [3] (stage WD) is given as 10.98 log2.
As for “hsa-miR-1975: human miRNA, SEQ ID No. 15 (CCCCCACAACCGCGCUUGACUAGCU; expressed or natural sequence; listed as Homo sapiens)”, in series [3], the “Modulation (ratio of the level of intensity of expression in log2 in two stages of differentiation), D7 − D0” value was determined as 2.13 log2; the “Modulation (ratio of the level of intensity of expression in log2 in two stages of differentiation), FC − D7” value worked out at 0.34 log2; the “Modulation (ratio of the level of intensity of expression in log2 in two stages of differentiation), WD − D0” value worked out at 2.93 log2; the “Modulation (ratio of the level of intensity of expression in log2 in two stages of differentiation), WD − FC” value is 0.46 log2. Besides, in series [3], the “Abundance (%), D0” value is given as 0.48%; the “Level of intensity of expression in log2, D0” value amounted to 11.08 log2; the “Abundance (%), D7” value is 2.09%; the “Level of intensity of expression in log2, D7” value was found to be 13.22 log2. In series [3], the “Abundance (%), FC” value was determined as 2.56%; the “Level of intensity of expression in log2, FC” value is 13.55 log2; the “Abundance (%), WD” value came to 2.67%; the “Level of intensity of expression in log2, WD” value is recorded as 14.01 log2. In series [3] (stage WD), the “Level of intensity of expression in log2 At the differentiated stage (WD) measured in HTS” value was determined as 11.22 log2.
